Test results published in BindingDB's records for doi:10.1021/cb400452z (2013).

Experiments:
[1] = target: T1, Serine/threonine-protein kinase PKH2 [1-944] (Candida albicans (strain SC5314 / ATCC MYA-2876), UniProt Q5A3P6); assay: AlphaScreen Assay; conditions: pH 7.4
T1 construct: 1-944
T1 sequence (Q5A3P6 whole entry): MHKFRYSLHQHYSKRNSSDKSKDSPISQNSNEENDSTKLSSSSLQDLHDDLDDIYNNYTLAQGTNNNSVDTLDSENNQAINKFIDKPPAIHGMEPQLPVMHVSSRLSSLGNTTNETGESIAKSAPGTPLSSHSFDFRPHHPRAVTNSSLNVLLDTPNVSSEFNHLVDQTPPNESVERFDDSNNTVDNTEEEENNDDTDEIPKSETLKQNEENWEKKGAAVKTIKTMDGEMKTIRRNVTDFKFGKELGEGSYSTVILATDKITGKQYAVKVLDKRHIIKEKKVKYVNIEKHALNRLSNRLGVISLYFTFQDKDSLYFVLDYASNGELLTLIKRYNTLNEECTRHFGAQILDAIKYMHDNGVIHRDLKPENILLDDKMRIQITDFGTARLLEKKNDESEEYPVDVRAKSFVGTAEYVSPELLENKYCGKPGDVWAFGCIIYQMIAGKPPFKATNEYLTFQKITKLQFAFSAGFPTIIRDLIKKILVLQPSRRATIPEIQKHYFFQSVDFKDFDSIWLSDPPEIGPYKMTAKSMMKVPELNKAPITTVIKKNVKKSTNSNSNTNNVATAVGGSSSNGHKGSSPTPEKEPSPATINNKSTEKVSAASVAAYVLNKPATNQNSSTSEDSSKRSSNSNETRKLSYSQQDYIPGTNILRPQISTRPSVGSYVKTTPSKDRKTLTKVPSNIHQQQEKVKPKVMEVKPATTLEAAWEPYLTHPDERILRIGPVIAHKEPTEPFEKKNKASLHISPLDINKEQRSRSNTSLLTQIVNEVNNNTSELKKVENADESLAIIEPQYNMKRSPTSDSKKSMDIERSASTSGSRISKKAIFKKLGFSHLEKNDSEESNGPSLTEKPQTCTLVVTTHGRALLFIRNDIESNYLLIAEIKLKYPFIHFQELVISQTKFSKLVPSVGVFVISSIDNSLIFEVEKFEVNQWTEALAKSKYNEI
Procedure: (§1) The AlphaScreen Assay (Perkin Elmer) was performed according to the manufacturer's protocol in 384-well microtiter plates. Incubations were performed in white 384-well microtiter plates containing 20uL of a reaction mix (50mM Tris-HCl pH 7.4, 100mM NaCl, 1mM dithiotreitol, 0.01% (v/v) Tween-20, 0.1% (w/v) BSA, 1mM DMSO, 100nM His-CaPkh2 or 100nM His-PDK1, 50nM Biotin-PIFtide, and the indicated concentrations of unlabeled PIF-tide or small compounds) and 5uL of beads. 5uL of beads solution containing nickel chelate-coated acceptor beads and streptavidin-coated donor beads (20ug/mL final concentrations) was added to the reaction mix. The reaction mix and the beads were incubated in the dark for 45 min at RT and the emission of light from the acceptor beads was measured in the EnVision reader (Perkin Elmer) and analyzed using the GraphPad Prism software.

[2] = target: T2, 3-phosphoinositide-dependent protein kinase 1 (Homo sapiens, UniProt O15530); assay: Protein Kinase Activity Assay; conditions: pH 7.4; 0 °C
T2 sequence (O15530 whole entry): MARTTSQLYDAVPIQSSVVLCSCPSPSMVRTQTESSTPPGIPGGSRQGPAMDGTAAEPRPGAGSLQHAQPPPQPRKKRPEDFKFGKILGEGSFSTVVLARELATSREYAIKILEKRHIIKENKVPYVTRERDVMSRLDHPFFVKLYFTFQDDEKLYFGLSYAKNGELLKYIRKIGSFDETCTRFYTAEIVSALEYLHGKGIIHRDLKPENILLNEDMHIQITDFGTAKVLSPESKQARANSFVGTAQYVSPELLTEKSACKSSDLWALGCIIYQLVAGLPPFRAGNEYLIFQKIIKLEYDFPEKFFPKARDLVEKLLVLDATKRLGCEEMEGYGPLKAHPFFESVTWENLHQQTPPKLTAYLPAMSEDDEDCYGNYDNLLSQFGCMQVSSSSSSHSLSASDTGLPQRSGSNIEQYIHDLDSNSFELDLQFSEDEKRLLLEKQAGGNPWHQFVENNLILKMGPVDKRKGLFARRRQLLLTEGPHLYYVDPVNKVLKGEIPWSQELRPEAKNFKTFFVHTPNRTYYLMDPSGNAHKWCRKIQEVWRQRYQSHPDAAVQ
Procedure: (§2) A 20ul mix containing 50mM Tris pH 7.5, 0.05mg/ml BSA, 0.1% β-mercaptoethanol, 10mM MgCl2, 100μM [γ-P32]ATP (5-50cpm/pmol), 0.003% Brij, 150-500ng PDK1 or CaPkh2, and T308tide (from 0.1 to 1mM) was pre-incubated at room temperature (22¿C) for 15 minutes. The kinase reaction was initiated by the addition of the ATP-Mg mixture, followed by the addition of 5μl phosphoric acid (final concentration 0.01%) to stop the reaction. The PDK1 activity assay was performed in a 96 well format and 4μl aliquots spotted on p81 phosphocellulose papers (Whatmann) using ep motion 5070 (Eppendorf), washed in 0.01% phosphoric acid, dried, and then exposed and analyzed using PhophoImager technology (FLA-9000 Starion, Fujifilm). The specific activity of CaPkh2 and PDK1 was estimated using 100μM T308tide.

[3] = target: T1, Serine/threonine-protein kinase PKH2 [1-944]; assay: Protein Kinase Activity Assay; conditions: pH 7.4; 0 °C
Procedure: as §2

[4] = target: T2, 3-phosphoinositide-dependent protein kinase 1; assay: AlphaScreen Assay; conditions: pH 7.4; room temperature
Procedure: as §1

Compound | EC50 [1] [µM] | IC50 [2] [µM] | IC50 [3] [µM] | EC50 ([1]; room temperature) [µM] | EC50 [4] [µM]
O=C(O)CSC(CC(=O)c1ccc(Cl)cc1)c1ccccc1Sc1ccc(Cl)cc1 (stereo not drawn) [PS77] | 44 | 38 | 17 |  | 
O=C(O)CSC(CC(=O)c1ccc(Cl)cc1)c1ccccc1 (stereo not drawn) |  |  |  | 85 | 
O=C(C[C@@H](c1ccccc1)C(C(=O)O)C(=O)O)c1ccc(C(F)(F)F)cc1 |  |  |  | 60 | 39
O=C(CC(c1ccccc1)C(C(=O)O)C(=O)O)c1ccc(Cl)cc1 (stereo not drawn) [PS182] |  |  |  | 66 | 26
